The conditions of data set [1]: administered orally; cited from earlier work.
Data set [2] concerns NCI-H441/dTHP co-culture model. Put plainly: Bidirectional transport, NCI-H441/dTHP co-culture model. It counts as in vitro ADME, human. Particulars: for ER: NCI-H441/dTHP, 2 μM. How it is done:
(§1) THP-1 cells were cultured in RPMI-1640 medium (Gibco, Thermo, CA, USA) supplemented with 10% FBS, PS (100 U/mL), and β-Mer (0.05 mM) at 37 °C in a humidified 5% CO2 incubator, and the medium was changed every other day. THP-1 cells were seeded at 4 × 10^5 cells/mL in six-well plates and induced for 48 h by adding medium containing a final concentration of 100 ng/mL PMA.
(§2) Then, the differentiated cells were seeded at 5 × 10^4 cells/well on the surface of NCI-H441 cells 10 days after air–liquid culture and continued to co-culture for 24 h.
(§3) We removed the liquid from the apical and basolateral of the Transwell, rinsed the cells three times with a buffer containing HBSS, 10 mM Hepes, and 0.1% BSA (Buffer A), and then added Buffer A (100 µL for the apical side and 600 µL for the basolateral side) for pre-incubation for 30 min at 37 °C. For the transport studies in the apical to basolateral (A-B) direction, 100 μL of pre-warmed test solution (Buffer A containing 2 µM positive control drugs or peramivir) was added to the apical side, while 600 μL of pre-warmed assay buffer, a buffer containing HBSS, 10 mM Hepes, and 1% BSA (Buffer B), was added to the basolateral compartment.

In data set [3] the test system is NCI-H441 cell model. Put plainly: Bidirectional transport, NCI-H441 air-liquid culture model. Type of data set: in vitro ADME, human. How it is done: (§4) NCI-H441 cells were cultured in RPMI-1640 medium (Gibco, Thermo, CA, USA) supplemented with 10% FBS and PS (100 U/mL) at 37 °C in a humidified 5% CO2 incubator, and the medium was changed every other day. […] Then, 850 μL of complete medium (containing 200 nM dexamethasone) was added to the basolateral chamber. […] Subsequently, an air-interfaced culture (AIC) was initiated by supplying 650 μL of culture medium to the basolateral chamber only. The culture medium was replaced every other day.
as §3

Data set [4] has as its system Calu-3 cell model. The data set is described as follows: Bidirectional transport, Calu-3 air-liquid culture model. Particulars: Calu-3, about 14 days air–liquid interface.
In data set [5] the target is P-gp (MDR1) (Homo sapiens, UniProt P08183). Put plainly: Permeability assay, LLC-PK1-MDR1 cells overexpressing P-gp. To be noted: for Papp B→A at 2 h, 2 µM / efflux ratio at 2 h, 2 µM: human, LLC-PK1.
Protocol: (§5) When the cell transport system was mature in culture, experiments were performed. […] When assessing permeability in basolateral to apical (B-A) direction, 100 μL of pre-warmed Buffer B and 600 μL of pre-warmed test solutions were added to the apical and basolateral compartments, respectively. The Transwells® were placed in an incubator at 37 °C and 5% CO2 for a duration of 2 h. At the end of the incubation period, the samples in the apical and basolateral sides were collected separately and were briefly kept at a temperature of −40 °C for LC-MS/MS analysis. […] The cells were transferred to Transwell® plates (Corning, NY, USA) at a density of 2 × 10^4 cells/well with 200 μL of cell suspension per well, while 850 μL of complete medium was added to the basolateral chamber. […] The samples were collected separately and were briefly kept at a temperature of −40 °C for LC-MS/MS analysis.
Data set [6] concerns the target human MDR1 (P-gp) (Homo sapiens, UniProt P08183). The data set is described as above. To be noted: LLC-PK1-MDR1, 2 μM, Mean ± SD, n = 3.
Protocol: as §5
Data set [7] is described as follows: Bidirectional transport, Calu-3 air-liquid culture model. To be noted: human.
Data set [8] has as its system P-gp. The data set is described as above. To be noted: human, with tariquidar 5 µM.
Data set [9] is described as follows: Permeability assay, LLC-PK1-MOCK cells. Particulars: pig, LLC-PK1, 2 μM; for Papp A→B at 2 h, 2 µM / Papp B→A at 2 h, 2 µM: Mean ± SD, n = 3; for efflux ratio at 2 h, 2 µM: read-out: ER. It counts as in vitro ADME.
Protocol: as §5
A short description of data set [10]: Bidirectional transport, NCI-H441/dTHP co-culture model. It counts as in vitro ADME, human. To be noted: human; NCI-H441/dTHP, 2 μM, Mean ± SD, n = 3. On the procedure: as §1, §2, §3
Data set [11] in a line: Bidirectional transport, NCI-H441 air-liquid culture model. It counts as in vitro ADME, human. Particulars: human, NCI-H441, 2 μM; for Papp A→B at 2 h, 2 µM / Papp B→A at 2 h, 2 µM: Mean ± SD, n = 3. On the procedure:
as §4, §3

For data set [12], the system named is BCRP. The description is as above. Type of data set: in vitro ADME, human. Particulars: human, with ko143 5 µM; NCI-H441, topotecan 2 μM with BCRP inhibitor ko143 (5 μM); read-out: ER value, inhibitor group. On the procedure:
as §4, §3

Where only a bound is given, the exact number is not on record here.

P-gp (MDR1), sequence (P08183 whole entry): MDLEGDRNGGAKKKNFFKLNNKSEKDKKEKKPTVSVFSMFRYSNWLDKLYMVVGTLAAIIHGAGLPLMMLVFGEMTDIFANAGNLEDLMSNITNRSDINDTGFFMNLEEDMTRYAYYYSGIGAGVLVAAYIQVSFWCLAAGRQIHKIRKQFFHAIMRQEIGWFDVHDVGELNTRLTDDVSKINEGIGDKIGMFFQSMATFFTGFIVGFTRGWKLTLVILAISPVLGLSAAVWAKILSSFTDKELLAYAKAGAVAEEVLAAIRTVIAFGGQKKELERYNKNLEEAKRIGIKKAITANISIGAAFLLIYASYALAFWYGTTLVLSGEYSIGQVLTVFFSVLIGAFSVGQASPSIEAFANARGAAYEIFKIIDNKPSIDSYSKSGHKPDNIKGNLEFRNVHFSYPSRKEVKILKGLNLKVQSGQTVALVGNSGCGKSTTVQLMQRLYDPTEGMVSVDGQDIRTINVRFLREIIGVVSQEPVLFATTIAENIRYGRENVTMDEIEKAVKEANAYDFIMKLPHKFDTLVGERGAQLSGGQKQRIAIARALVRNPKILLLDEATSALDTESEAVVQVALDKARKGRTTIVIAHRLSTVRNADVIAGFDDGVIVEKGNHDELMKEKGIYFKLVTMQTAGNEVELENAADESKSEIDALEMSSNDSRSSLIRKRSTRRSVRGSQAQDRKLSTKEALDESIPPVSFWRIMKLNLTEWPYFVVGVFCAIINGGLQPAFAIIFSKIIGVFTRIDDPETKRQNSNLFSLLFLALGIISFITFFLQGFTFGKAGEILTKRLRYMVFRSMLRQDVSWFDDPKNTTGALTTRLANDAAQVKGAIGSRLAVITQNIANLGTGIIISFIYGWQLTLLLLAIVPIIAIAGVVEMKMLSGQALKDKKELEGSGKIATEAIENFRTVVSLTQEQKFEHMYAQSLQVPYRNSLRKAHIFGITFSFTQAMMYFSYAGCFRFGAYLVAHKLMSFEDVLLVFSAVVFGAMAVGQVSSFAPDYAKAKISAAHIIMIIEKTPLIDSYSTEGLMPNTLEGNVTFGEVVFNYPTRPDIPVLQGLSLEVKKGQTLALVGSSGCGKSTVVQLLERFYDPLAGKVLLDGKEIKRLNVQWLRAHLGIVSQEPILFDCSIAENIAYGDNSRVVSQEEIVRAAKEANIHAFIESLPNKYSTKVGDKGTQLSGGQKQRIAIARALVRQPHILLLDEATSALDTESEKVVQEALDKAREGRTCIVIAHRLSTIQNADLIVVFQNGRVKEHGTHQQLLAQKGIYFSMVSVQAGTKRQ
human MDR1 (P-gp), sequence (P08183 whole entry): as above

For the compound `CC(=O)N[C@H]1[C@H]([C@H](O)[C@H](O)CO)OC(C(=O)O)=C[C@@H]1N=C(N)N` [zanamivir], the absolute bioavailability entry in data set [1] is reported as “approximately 2%”.
For `NNC(=O)NN1C(=O)c2cc(S(=O)(=O)[O-])cc3c(N)c(S(=O)(=O)[O-])cc(c23)C1=O.[K+].[K+]` [Lucifer yellow CH dipotassium salt], the “permeability value (barrier integrity)” value in data set [2] (NCI-H441/dTHP co-culture 24 h) is less than 2 ×10⁻⁶ cm/s; in data set [3] (NCI-H441, about 7 days air–liquid interface) it was less than 2 ×10⁻⁶ cm/s; in data set [4], less than 2 ×10⁻⁶ cm/s.
Take `C[C@H]1O[C@@H](O[C@H]2[C@@H](O)C[C@H](O[C@H]3[C@@H](O)C[C@H](O[C@H]4CC[C@@]5(C)[C@H](CC[C@@H]6[C@@H]5C[C@@H](O)[C@]5(C)[C@@H](C7=CC(=O)OC7)CC[C@]65O)C4)O[C@@H]3C)O[C@@H]2C)C[C@H](O)[C@@H]1O` [Digoxin]: the Papp B→A (as a rule, the apparent permeability from the basolateral to the apical side of a cell layer) at 2 h, 2 µM in [5] amounted to 9.76 ± 0.73 ×10⁻⁶ cm/s; in data set [7] it was 25.1 ± 7.18 ×10⁻⁶ cm/s; in [9], 2.22 ± 0.36 ×10⁻⁶ cm/s. For the same compound, the efflux ratio at 2 h, 2 µM in [5] is 13.1; in [8], roughly 1; in [9], 1.35. Also, the “Papp A-B” value in [6] is given as 0.74 ± 0.15 ×10−6 cm/s. Further, the Papp A→B (in general, how fast a substance crosses the layer from the apical side) at 2 h, 2 µM was determined as 0.66 ± 0.02 ×10⁻⁶ cm/s in [7] and 1.64 ± 0.27 ×10⁻⁶ cm/s in data set [9].
As to `CC(C)NCC(O)COc1ccc(CC(N)=O)cc1` (stereo not drawn) [Atenolol], in data set [2], the ER was found to be 0.88.
As for `COCCc1ccc(OCC(O)CNC(C)C)cc1` (stereo not drawn) [Metoprolol], the Papp A→B at 2 h, 2 µM in [10] amounted to 27.9 ± 7.99 ×10⁻⁶ cm/s; in [11], 25.6 ± 5.45 ×10⁻⁶ cm/s; in [5], 20.4 ± 1.24 ×10⁻⁶ cm/s; in data set [7] it was 29.8 ± 2.28 ×10⁻⁶ cm/s; in data set [9], 28.5 ± 2.17 ×10⁻⁶ cm/s. The Papp B→A at 2 h, 2 µM was 24.36 ± 0.22 ×10⁻⁶ cm/s in [10]; 23.4 ± 2.96 ×10⁻⁶ cm/s in [11]; 23.1 ± 1.94 ×10⁻⁶ cm/s in data set [5]; 21.9 ± 3.73 ×10⁻⁶ cm/s in [7]; 25.6 ± 3.71 ×10⁻⁶ cm/s in data set [9]. Moreover, the ER in [2] is recorded as 0.90; in data set [3] (NCI-H441, 2 μM), 0.91. The efflux ratio at 2 h, 2 µM came out at 1.13 in data set [5], 29.8 ± 2.28 in [7] and 0.9 in data set [9].
Consider `CC[C@@]1(O)C(=O)OCc2c1cc1n(c2=O)Cc2cc3c(CN(C)C)c(O)ccc3nc2-1` [Topotecan], for which the figures for the Papp A→B at 2 h, 2 µM in data set [10] and in [11] were 2.88 ± 0.55 ×10⁻⁶ cm/s and 1.54 ± 0.12 ×10⁻⁶ cm/s, respectively. For the same compound, the Papp B→A at 2 h, 2 µM in data set [10] is 6.18 ± 1.63 ×10⁻⁶ cm/s; in [11] it was 3.47 ± 0.26 ×10⁻⁶ cm/s. Moreover, in [2], the ER amounted to 2.15. Moreover, the efflux ratio at 2 h, 2 µM in data set [11] (read-out: ER) is 2.25; in data set [12], roughly 1.

The record behind these values is paper PMC11858854, “In Vitro and In Vivo Assessment of Pharmacokinetic Profile of Peramivir in the Context of Inhalation Therapy” (Pharmaceuticals, 2025).
